{"source": "paper PMC7559477", "about": "“Zinc Binding by Histatin 5 Promotes Fungicidal Membrane Disruption in C. albicans and C. glabrata” (Journal of Fungi, 2020)", "key": {"[1]": {"tested_on": "C. albicans cells", "experiment": "Peptide uptake (cell association) assay", "type": "cell-based, Candida albicans", "settings": "0.44 fmol/cell, 30 °C, up to 20 min, initial binding subtracted", "procedure": "(§1) Experiments were carried out with Candida albicans strain SC5314 [41] or Candida glabrata strain Cg931010 [42]. Liquid and solid pre-mixed yeast-peptone-dextrose media was used to grow yeast cells (YPD and YPD-Agar, respectively) (Fisher Scientific, Waltham, MA, USA). All media was prepared in deionized water with 50 µg/ mL supplemented uridine (Sigma Aldrich, St. Louis, MO, USA), and sterilized by autoclave. Metal salt solutions of ZnSO4·7H2O (Fisher Scientific, Waltham, MA, USA) were made in High-performance liquid chromatography (HPLC)-grade water (JT Baker, Phillipsburg, NJ, USA) and used within one day of preparation. […]\nC. albicans cells were added to pre-incubated peptides (30 min, 20 °C) alone or at a 1 Zn^2+:2 peptide ratio, and additionally to Hst 5 at a 3 Zn^2+:2 peptide ratio, using a dose of 0.44 fmol peptide/cell. After cells were added, samples were vortexed briefly and immediately centrifuged for 2 min at 6000× g at 20 °C, after which 10 µL supernatant was removed to new tubes and stored at 4 °C for quantification. […] Protein concentration in supernatant samples was measured by NanoDrop. […] Significance of differences in uptake rate and binding between zinc added and zinc free samples were calculated using two-way ANOVA with Sidak’s multiple comparisons test. […]"}, "[2]": {"tested_on": "Candida albicans strain SC5314", "experiment": "Candidacidal assay, C. albicans", "type": "cell-based", "settings": "0.44 fmol/cell, 1 Zn2+ to 2 peptides, 1 h at 30 °C, 10 mM NaPB pH 7.4; words = versus peptide alone", "procedure": "as §1\nCells (C. albicans or C. glabrata) were cultured as previously described. […] Significance of differences in killing between Zn^2+ and Zn^2+-free samples were calculated using one-way ANOVA with Sidak’s multiple comparisons test.\n(A) Candidacidal assays of C. albicans SC5314 cells with 1 h incubation at 30 °C of Hst 5 (red), Hst 5ΔMB (blue), and P113 (green) at dosages of 0.44, 3.75, 7.5, 15, and 30 fmol/cell in 10 mM sodium phosphate buffer pH 7.4. […] Significance of differences in killing activity were calculated using one way ANOVA with Sidak’s multiple comparisons test. * indicates p ≤ 0.05, ** indicates p ≤ 0.01, **** indicates p ≤ 0.0001."}}, "note": "Where no end group is shown, it is not given here."}
{"sequence": "QQQAKRHHGYKRKFQQQQQSHRGY [Hst 5ΔMB]", "values": [{"measurement": "total uptake with added Zn2+", "setting": "[1]; 1 Zn2+:2 peptide, 10 mM NaPB pH 7.4, words = versus peptide alone", "result": 90, "unit": "pmol"}, {"measurement": "total uptake", "setting": "[1]; peptide alone, 10 mM NaPB pH 7.4, supernatant by NanoDrop, at least three days, averaged", "result": 370, "unit": "pmol"}, {"measurement": "killing with added Zn2+", "setting": "[2]", "result": "did not significantly alter"}]}
